One may read the % Inhibition as the percentage by which the read-out fell short of the control. The low end stands for a weak effect, the high end for a strong effect.

The test system of assay [1] is vasculature of chick embryos. In words: CAM assay. It is filed as in vivo. Here is the method: Method: The method used was that described in D. Knighton, D. Ausprunk, D. Tapper, and J. Folkman, “Avascular and Vascular Phases of Tumour Growth in the Chick Embryo.” J. Cancer 35:347-355 (1977) Procedure: The test compounds were suspended in sterile saline and then applied to methylcellulose discs, ¼ inch diameter with a micropipette and allowed to air dry at a concentration of 10 μg/disc.
The test was graded as follows:
The following scores are based on the observation of at least 10 chick embryos.

In assay [2] the target is Ca++ Ch.-L, Dihydropyridine (Rattus norvegicus, UniProt P22002). In words: Ca++ Ch.-L, Dihydropyridine radioligand binding. As to conditions: 10.0 μM; specific binding of [3H]Nitrendipine; negative = stimulation. How it is done:
The peptide was further screened in vitro in a variety of enzyme and biochemical assays. Methods employed were adapted from the scientific literature to maximize reliability and reproducibility.
Results presented in Table 10, “Results,” are the average of duplicate determinations, unless otherwise noted.
Radioligand binding assays were performed under conditions described in Table 8, “Experimental Conditions.” Radioligands employed in this study are given in Table 8, and commercial sources and catalog numbers of the radioligands are provided in Table 7, “Material Sources.” Unlabeled, blocking ligands employed this study are listed in Table 8, “Experimenal Conditions,” along with the commercial sources and catalog number of the unlabeled ligand. The concurrent reference compound (control) employed in each assay is listed in Table 9, “Reference Compound Data,” along with the commercial supplier and catalog number of the compound. Where receptors have been obtained through recombinant expression techniques, the species from which the cDNA was obtained, and the type of expression system employed (mammalian, insect, bacterial) is also given Table 7.
Maximum total binding and nonspecific binding were determined each time each assay was run. Nonspecific binding was defined as the proportion of total binding not displaced by unlabeled ligand specific for the receptor. […]

Chain of Ca++ Ch.-L, Dihydropyridine (P22002 whole entry): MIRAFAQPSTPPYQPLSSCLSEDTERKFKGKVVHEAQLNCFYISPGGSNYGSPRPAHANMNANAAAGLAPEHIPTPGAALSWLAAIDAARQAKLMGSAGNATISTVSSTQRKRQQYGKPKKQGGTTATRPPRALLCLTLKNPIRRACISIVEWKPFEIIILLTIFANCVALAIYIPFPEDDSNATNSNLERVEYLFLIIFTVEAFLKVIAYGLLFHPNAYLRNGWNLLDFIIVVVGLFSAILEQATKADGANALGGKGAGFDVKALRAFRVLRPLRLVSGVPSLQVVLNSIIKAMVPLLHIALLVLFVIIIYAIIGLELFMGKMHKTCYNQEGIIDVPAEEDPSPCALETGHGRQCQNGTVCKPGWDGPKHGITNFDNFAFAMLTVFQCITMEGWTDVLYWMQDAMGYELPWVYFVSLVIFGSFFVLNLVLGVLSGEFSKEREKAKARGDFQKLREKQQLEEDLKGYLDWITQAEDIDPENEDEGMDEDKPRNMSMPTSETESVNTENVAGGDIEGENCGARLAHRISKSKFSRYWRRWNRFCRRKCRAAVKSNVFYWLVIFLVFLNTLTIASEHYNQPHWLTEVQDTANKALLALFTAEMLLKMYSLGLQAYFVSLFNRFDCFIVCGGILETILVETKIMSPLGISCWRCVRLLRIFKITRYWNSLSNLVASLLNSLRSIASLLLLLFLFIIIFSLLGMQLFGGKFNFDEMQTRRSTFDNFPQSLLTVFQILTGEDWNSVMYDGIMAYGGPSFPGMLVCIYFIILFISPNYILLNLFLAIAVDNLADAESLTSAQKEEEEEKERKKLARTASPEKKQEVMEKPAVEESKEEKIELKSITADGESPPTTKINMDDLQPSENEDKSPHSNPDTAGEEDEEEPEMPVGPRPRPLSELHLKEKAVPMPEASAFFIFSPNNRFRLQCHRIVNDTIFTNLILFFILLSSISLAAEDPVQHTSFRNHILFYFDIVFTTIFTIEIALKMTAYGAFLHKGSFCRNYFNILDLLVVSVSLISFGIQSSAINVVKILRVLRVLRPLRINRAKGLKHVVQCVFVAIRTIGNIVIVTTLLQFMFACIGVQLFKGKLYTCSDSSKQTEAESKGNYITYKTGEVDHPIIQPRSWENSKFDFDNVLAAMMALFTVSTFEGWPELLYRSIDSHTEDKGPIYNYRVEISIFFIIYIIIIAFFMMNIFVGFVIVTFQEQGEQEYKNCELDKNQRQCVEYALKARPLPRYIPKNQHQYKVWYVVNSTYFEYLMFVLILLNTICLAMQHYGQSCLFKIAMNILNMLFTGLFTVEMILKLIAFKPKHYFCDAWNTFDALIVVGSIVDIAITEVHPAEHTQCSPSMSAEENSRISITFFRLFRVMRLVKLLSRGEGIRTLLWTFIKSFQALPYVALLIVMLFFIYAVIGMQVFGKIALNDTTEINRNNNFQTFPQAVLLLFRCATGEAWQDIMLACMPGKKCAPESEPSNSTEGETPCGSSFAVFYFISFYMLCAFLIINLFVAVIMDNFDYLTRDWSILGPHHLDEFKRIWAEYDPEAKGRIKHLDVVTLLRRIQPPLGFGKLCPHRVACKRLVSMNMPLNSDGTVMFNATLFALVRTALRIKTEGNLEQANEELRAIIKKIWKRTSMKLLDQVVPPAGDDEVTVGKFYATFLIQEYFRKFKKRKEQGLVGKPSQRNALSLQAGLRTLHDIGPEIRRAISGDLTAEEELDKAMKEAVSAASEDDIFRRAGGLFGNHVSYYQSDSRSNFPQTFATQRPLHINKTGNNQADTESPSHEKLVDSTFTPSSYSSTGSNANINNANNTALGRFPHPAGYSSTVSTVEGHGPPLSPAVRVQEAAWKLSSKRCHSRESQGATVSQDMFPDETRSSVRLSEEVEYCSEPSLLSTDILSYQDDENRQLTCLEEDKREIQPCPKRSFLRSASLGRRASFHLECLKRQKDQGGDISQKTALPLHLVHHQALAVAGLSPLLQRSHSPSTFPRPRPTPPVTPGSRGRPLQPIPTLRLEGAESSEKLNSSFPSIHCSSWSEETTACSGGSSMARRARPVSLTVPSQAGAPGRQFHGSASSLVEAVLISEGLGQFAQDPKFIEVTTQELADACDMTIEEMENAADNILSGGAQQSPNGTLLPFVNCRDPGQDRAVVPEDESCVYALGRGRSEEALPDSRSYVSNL

On to LEU-PRO-PRO-SER-ARG [Peptide], for which, in assay [1] (10 μg/disc on methylcellulose discs, at least 10 chick embryos, graded 0 to +4), the “CAM assay antiangiogenesis score” value is 3.6. For the same substance, the “inhibited proliferation of vacularization” value in assay [1] (CAM assay, 10 μg/disc) is given as “approximately 95%”. Further, the “% Inhibition” value in assay [2] came out at 2%.

Values taken from US6767890B1, “Peptides having anti-cancer and anti-inflammatory activity” (priority 1998, dated 2004).
